# Results from publication PMC11456426, “Study of transport, tissue distribution, depletion, and hepatotoxicity of Cyadox, a quinoxaline-1,4-dioxide derivative” (Frontiers in Pharmacology, 2024).
# Experiments:
# [1] = Tissue distribution and depletion after oral [3H]-CYA for seven consecutive days; format: in vivo, Wistar rats; conditions: rats; for Tissue distribution and depletion of CYA (means ± SD) / t1/2 (elimination half-life): oral 10 mg/kg·bw x 7 days; for Tissue distribution and depletion of CYA (means ± SD): n = 4
# Procedure: For the tissue distribution study, 24 rats were divided into six groups, one group as a blank control and five groups as five time point groups. Each time point group consisted of 4 rats (2 male and 2 female) administered [^3H]-CYA orally by gavage at 10 mg/kg bw (corresponded to a feed inclusion of approximately 100 mg/kg dose) for seven consecutive days, respectively. Dosing suspensions of [^3H]-CYA (2.08 Ci/mmol) were prepared in 0.5% aqueous carboxymethyl cellulose (CMC) at 4 mg/mL after being diluted with non-radiolabeled CYA to a specific activity of 9,044 dpm/µg. Another group of 4 rats (2 male and 2 female) was fed separately from the radioactive administration group for the blank control under the same conditions, sacrificed at 0 day. One group of 2 male and 2 female rats was randomly selected to be slaughtered at each time point (0.25, 1, 3, 7, and 14 days) after withdrawal. The rats were dissected, and blood, muscle, heart, liver, lung, spleen, kidney, skin, stomach, large intestine, small intestine, brain, cecum, testicle (or ovary), bladder, and bone (thigh bone) were collected separately and stored at −20°C until analysis. The weight of each tissue was recorded. Gastrointestinal tracts were stripped of their contents.
# (§1) For radioactivity detection, the samples were combusted by PerkinElmer Oxidizer 307 (PerkinElmer Life and Analytical Sciences). ^3H2O was collected into 20 mL of scintillant (PerkinElmer Life and Analytical Sciences) with 10 mL of Monophase S, and sample radioassays were quantitated by PerkinElmer® TriCarb® 2900 (PerkinElmer Life and Analytical Sciences) with low-level quench-correction. Counting efficiency was above 65%.
# (§2) Tissue samples for each sampling time from all animals were homogenized, aliquots of blood and urine were mixed thoroughly, and feces were homogenized in methanol/water (50:50; V/V). Samples of the blood (500 μL), urine (500 μL) feces (500 mg), bone, and all tissues (100–500 mg) were combusted in PerkinElmer Oxidizer 307 after being transferred into tared cones and pads (PerkinElmer Life and Analytical Sciences) and added an aliquot of Combustaid (200 μL; PerkinElmer Life and Analytical Sciences). Radioactivity in the combustion products was determined by collecting ^3H2O into distilled water followed by liquid scintillation counting. Combustion efficiency was determined daily, prior to the combustion of study samples, by using a diluted dose formulation or ^3H standard. The measured radioactivity content in the combusted samples was adjusted using the combustion efficiency values. Samples were analyzed for radioactivity for 5 min. Total residue concentrations were calculated from the specific activity and radioactivity per mass or volume and expressed as molar equivalents of CYA.
# [2] = Excretion study, recovery of total radioactivity after single oral [3H]-CYA; format: in vivo, Wistar rats
# Procedure: For the excretion study, a group of six rats (3 male and 3 female) were housed individually in metabolism cages, which allowed separate collection of urine and feces, and then administered with a single dose of 10 mg/kg bw (corresponded to a feed inclusion of approximately 100 mg/kg dose) [^3H]-CYA by oral gavage. Dosing suspensions of [^3H]-CYA were prepared in 0.5% aqueous CMC at 2 mg/mL after [^3H]-CYA (2.08 Ci/mmol) was diluted with non-radiolabeled CYA to a specific activity of 4.52 × 10^4 dpm/µg. Urine and feces were collected from intact animals for 7 days at 0–12, 12–24, 24–48, 48–72, 72–96, 96–120, 120–144, and 144–168 h after the dose, and the total weight of the urine and feces was recorded after each collection. At the end of the study, the animals are anesthetized, and once it's confirmed that they have lost consciousness, they are euthanized by exsanguination. The samples were stored at −20°C until analysis. Contents of gastrointestinal tracts were pooled with feces of 144–168 h time point. Each metabolism cage was thoroughly rinsed with a mixture of methanol/water (1:1; V/V), and the rinse solvent was collected and weighed. Each cage rinse was stirred thoroughly, […] of subsamples were removed, and radioactivities were analyzed immediately. One animal per gender was administered with non-radiolabeled CYA at the same dose, and animals were sacrificed at 6 h post-dose. Urine, feces, and tissues were collected for the blank controls.
# as §1, §2
# [3] = rats, single oral 10 mg/kg bw, 7 days
structure (smiles),measurement,setting,value
[3H]c1ccc2c(c1)[n+]([O-])cc(/C=N/NC(=O)CC#N)[n+]2[O-] [[^3H]-CYA],Tissue distribution and depletion of CYA (means ± SD),"[1]; Bladder, 6 h after withdrawal",0.98863 ± 0.19738 mg/kg
same,Tissue distribution and depletion of CYA (means ± SD),"[1]; Blood, 6 h after withdrawal",1.55298 ± 0.13322 mg/kg
same,Tissue distribution and depletion of CYA (means ± SD),"[1]; Blood, 1 d after withdrawal",0.78575 ± 0.05613 mg/kg
same,Tissue distribution and depletion of CYA (means ± SD),"[1]; Blood, 3 d after withdrawal",0.74887 ± 0.0257 mg/kg
same,Tissue distribution and depletion of CYA (means ± SD),"[1]; Blood, 7 d after withdrawal",0.06989 ± 0.03612 mg/kg
same,t1/2 (elimination half-life),[1]; Blood,38.50 h
same,Tissue distribution and depletion of CYA (means ± SD),"[1]; Bone, 6 h after withdrawal",0.49469 ± 0.05879 mg/kg
same,Tissue distribution and depletion of CYA (means ± SD),"[1]; Bone, 1 d after withdrawal",0.28043 ± 0.05615 mg/kg
same,Tissue distribution and depletion of CYA (means ± SD),"[1]; Brain, 6 h after withdrawal",0.62702 ± 0.06033 mg/kg
same,Tissue distribution and depletion of CYA (means ± SD),"[1]; Brain, 1 d after withdrawal",0.45064 ± 0.04138 mg/kg
same,Tissue distribution and depletion of CYA (means ± SD),"[1]; Caecum, 6 h after withdrawal",15.5409 ± 2.03867 mg/kg
same,Tissue distribution and depletion of CYA (means ± SD),"[1]; Caecum, 1 d after withdrawal",0.56384 ± 0.06558 mg/kg
same,Tissue distribution and depletion of CYA (means ± SD),"[1]; Caecum, 3 d after withdrawal",0.02075 ± 0.01112 mg/kg
same,t1/2 (elimination half-life),[1]; Caecum,7.45 h
same,Tissue distribution and depletion of CYA (means ± SD),"[1]; Heart, 6 h after withdrawal",1.091 ± 0.1971 mg/kg
same,Tissue distribution and depletion of CYA (means ± SD),"[1]; Heart, 1 d after withdrawal",0.66217 ± 0.10149 mg/kg
same,Tissue distribution and depletion of CYA (means ± SD),"[1]; Heart, 3 d after withdrawal",0.24376 ± 0.04678 mg/kg
same,t1/2 (elimination half-life),[1]; Heart,31.50 h
same,Tissue distribution and depletion of CYA (means ± SD),"[1]; Kidney, 6 h after withdrawal",6.24527 ± 0.67361 mg/kg
same,Tissue distribution and depletion of CYA (means ± SD),"[1]; Kidney, 1 d after withdrawal",2.03447 ± 0.34637 mg/kg
same,Tissue distribution and depletion of CYA (means ± SD),"[1]; Kidney, 3 d after withdrawal",1.14528 ± 0.11569 mg/kg
same,Tissue distribution and depletion of CYA (means ± SD),"[1]; Kidney, 7 d after withdrawal",0.08605 ± 0.04177 mg/kg
same,t1/2 (elimination half-life),[1]; Kidney,28.88 h
same,Tissue distribution and depletion of CYA (means ± SD),"[1]; Large Intestine, 6 h after withdrawal",2.32296 ± 0.11341 mg/kg
same,Tissue distribution and depletion of CYA (means ± SD),"[1]; Large Intestine, 1 d after withdrawal",0.5581 ± 0.05702 mg/kg
same,Tissue distribution and depletion of CYA (means ± SD),"[1]; Large Intestine, 3 d after withdrawal",0.12977 ± 0.0238 mg/kg
same,t1/2 (elimination half-life),[1]; Large Intestine,16.90 h
same,Tissue distribution and depletion of CYA (means ± SD),"[1]; Liver, 6 h after withdrawal",5.04944 ± 0.37061 mg/kg
same,Tissue distribution and depletion of CYA (means ± SD),"[1]; Liver, 1 d after withdrawal",2.35504 ± 0.25805 mg/kg
same,Tissue distribution and depletion of CYA (means ± SD),"[1]; Liver, 3 d after withdrawal",1.4301 ± 0.17539 mg/kg
same,Tissue distribution and depletion of CYA (means ± SD),"[1]; Liver, 7 d after withdrawal",0.12635 ± 0.04235 mg/kg
same,t1/2 (elimination half-life),[1]; Liver,33.00 h
same,Tissue distribution and depletion of CYA (means ± SD),"[1]; Lung, 6 h after withdrawal",1.88405 ± 0.29415 mg/kg
same,Tissue distribution and depletion of CYA (means ± SD),"[1]; Lung, 1 d after withdrawal",1.68108 ± 0.11214 mg/kg
same,Tissue distribution and depletion of CYA (means ± SD),"[1]; Lung, 3 d after withdrawal",0.79745 ± 0.09581 mg/kg
same,Tissue distribution and depletion of CYA (means ± SD),"[1]; Lung, 7 d after withdrawal",0.04918 ± 0.01852 mg/kg
same,t1/2 (elimination half-life),[1]; Lung,30.13 h
same,Tissue distribution and depletion of CYA (means ± SD),"[1]; Muscle, 6 h after withdrawal",0.96902 ± 0.06106 mg/kg
same,Tissue distribution and depletion of CYA (means ± SD),"[1]; Muscle, 1 d after withdrawal",0.52982 ± 0.05487 mg/kg
same,Tissue distribution and depletion of CYA (means ± SD),"[1]; Ovary, 6 h after withdrawal",2.88421 ± 0.06688 mg/kg
same,Tissue distribution and depletion of CYA (means ± SD),"[1]; Ovary, 1 d after withdrawal",0.32655 ± 0.03923 mg/kg
same,Tissue distribution and depletion of CYA (means ± SD),"[1]; Ovary, 3 d after withdrawal",0.01887 ± 0.00619 mg/kg
same,t1/2 (elimination half-life),[1]; Ovary,9.63 h
same,Tissue distribution and depletion of CYA (means ± SD),"[1]; Skin/Fat, 6 h after withdrawal",1.2996 ± 0.23417 mg/kg
same,Tissue distribution and depletion of CYA (means ± SD),"[1]; Skin/Fat, 1 d after withdrawal",1.03596 ± 0.07642 mg/kg
same,Tissue distribution and depletion of CYA (means ± SD),"[1]; Skin/Fat, 3 d after withdrawal",0.42024 ± 0.03644 mg/kg
same,Tissue distribution and depletion of CYA (means ± SD),"[1]; Skin/Fat, 7 d after withdrawal",0.0253 ± 0.02233 mg/kg
same,Tissue distribution and depletion of CYA (means ± SD),"[1]; Small Intestine, 6 h after withdrawal",2.86777 ± 0.1072 mg/kg
same,Tissue distribution and depletion of CYA (means ± SD),"[1]; Small Intestine, 1 d after withdrawal",0.46368 ± 0.12091 mg/kg
same,Tissue distribution and depletion of CYA (means ± SD),"[1]; Small Intestine, 3 d after withdrawal",0.05785 ± 0.01762 mg/kg
same,t1/2 (elimination half-life),[1]; Small Intestine,12.60 h
same,Tissue distribution and depletion of CYA (means ± SD),"[1]; Spleen, 6 h after withdrawal",1.1278 ± 0.08725 mg/kg
same,Tissue distribution and depletion of CYA (means ± SD),"[1]; Spleen, 1 d after withdrawal",0.75931 ± 0.04725 mg/kg
same,Tissue distribution and depletion of CYA (means ± SD),"[1]; Spleen, 3 d after withdrawal",0.2717 ± 0.05323 mg/kg
same,Tissue distribution and depletion of CYA (means ± SD),"[1]; Spleen, 7 d after withdrawal",0.02521 ± 0.04114 mg/kg
same,t1/2 (elimination half-life),[1]; Spleen,30.13 h
same,Tissue distribution and depletion of CYA (means ± SD),"[1]; Stomach, 6 h after withdrawal",2.29013 ± 0.61619 mg/kg
same,Tissue distribution and depletion of CYA (means ± SD),"[1]; Stomach, 1 d after withdrawal",0.44866 ± 0.04356 mg/kg
same,Tissue distribution and depletion of CYA (means ± SD),"[1]; Stomach, 3 d after withdrawal",0.14233 ± 0.00993 mg/kg
same,t1/2 (elimination half-life),[1]; Stomach,18.24 h
same,Tissue distribution and depletion of CYA (means ± SD),"[1]; Testicle, 6 h after withdrawal",1.05196 ± 0.00706 mg/kg
same,Tissue distribution and depletion of CYA (means ± SD),"[1]; Testicle, 1 d after withdrawal",0.74037 ± 0.07782 mg/kg
same,Tissue distribution and depletion of CYA (means ± SD),"[1]; Testicle, 3 d after withdrawal",0.3319 ± 0.05429 mg/kg
same,t1/2 (elimination half-life),[1]; Testicle,40.76 h
same,time of maximum concentrations in all detected organs or tissues,[1]; oral 10 mg/kg bw for seven consecutive days,6 h
same,"radioactivity excreted, % of total dose",[2]; 0–12 h post-dose,21.03%
same,"radioactivity excreted, % of total dose",[2]; 12–24 h post-dose,70.25%
same,"drug-related radioactivity excreted, % of administration amount",[2]; first 24 h after administration,91.28%
same,radioactivity excreted in the feces,[2]; [3],60.25%
same,radioactivity excreted in the urine,[2]; [3],34.81%
same,radioactivity of the cage rinse,[2]; [3],0.78%
same,radioactivity remaining in the carcass,[2]; [3],0.38%
same,Overall recovery of total radioactivity,"[2]; rats, single oral 10 mg/kg bw, within 7 days (168 h), n = 6",96.22%
